Holding throughout (assay): relative viability (nuclei count vs DMSO), 5 days (fraction); higher = more cells survive
Compound in assay [1]: Cn1nnc2c(C(N)=O)ncn2c1=O [Temozolomide] + COc1cccc2cc(-c3nc([C@H]4CC[C@H](C(=O)O)CC4)n4ncnc(N)c34)[nH]c12 [OSI-027] (partner 0.5 µM)
In a few lines:
(§1)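 Lung cancer cell lines were seeded in 1536-well plates and dosed by pin tool the next day, with either a single drug or a fixed anchor-drug dose combined with five library-drug doses (not always all listed) spaced in √10 steps. Five days later, one step fixed the cells and stained their nuclei (final 0.05% Triton X-100, 1% formaldehyde, 1 ug/ml Hoechst), and nuclei were counted on 4× images. Relative viability is the nuclei count in treated wells divided by the count in vehicle wells, and each value is the median of duplicate plates.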

Compound in assay [2]: C[C@@H](C(=O)N[C@@H](C1CCCCC1)C(=O)N2CCC[C@H]2C(=O)N[C@@H]3[C@@H](CC4=CC=CC=C34)OCC#CC#CCO[C@@H]5CC6=CC=CC=C6[C@@H]5NC(=O)[C@@H]7CCCN7C(=O)[C@H](C8CCCCC8)NC(=O)[C@H](C)NC)NC [AZD5582] + CCNC(=O)c1noc(-c2cc(C(C)C)c(O)cc2O)c1-c1ccc(CN2CCOCC2)cc1 [Luminespib] (partner 0.01 µM)
In a few lines: as §1

Compound in assay [3]: C[C@@H](C(=O)N[C@@H](C1CCCCC1)C(=O)N2CCC[C@H]2C(=O)N[C@@H]3[C@@H](CC4=CC=CC=C34)OCC#CC#CCO[C@@H]5CC6=CC=CC=C6[C@@H]5NC(=O)[C@@H]7CCCN7C(=O)[C@H](C8CCCCC8)NC(=O)[C@H](C)NC)NC [AZD5582] + Nc1nc2[nH]cc(CCc3ccc(C(=O)N[C@@H](CCC(=O)O)C(=O)O)cc3)c2c(=O)[nH]1 [Pemetrexed] (partner 0.2 µM)
In a few lines: as §1

Compound in assay [4]: C[C@@H](C(=O)N[C@@H](C1CCCCC1)C(=O)N2CCC[C@H]2C(=O)N[C@@H]3[C@@H](CC4=CC=CC=C34)OCC#CC#CCO[C@@H]5CC6=CC=CC=C6[C@@H]5NC(=O)[C@@H]7CCCN7C(=O)[C@H](C8CCCCC8)NC(=O)[C@H](C)NC)NC [AZD5582] + C[C@@H](Oc1cc(-c2cnn(C3CCNCC3)c2)cnc1N)c1c(Cl)ccc(F)c1Cl [Crizotinib] (partner 1 µM)
The procedure, abridged:
as §1

As for NCI-H2085, the relative viability came to 0.537 in assay [1] (first compound 0.2 µM); 0.886 in assay [1] (first compound 0.6325 µM); 1.05 in assay [1] (first compound 2 µM); 0.734 in assay [1] (first compound 6.325 µM); 0.577 in assay [1] (first compound 20 µM); 0.435 in assay [2] (first compound 0.001581 µM). Besides, the relative viability in assay [2] (first compound 0.005 µM) is 0.478; in assay [2] (first compound 0.01581 µM) it was 0.439; in assay [2] (first compound 0.05 µM), 0.493; in assay [3] (first compound 0.001581 µM), 0.999; in assay [3] (first compound 0.005 µM) it was 1.07; in assay [3] (first compound 0.01581 µM), 0.482. Also, the relative viability in assay [3] (first compound 0.05 µM) was 0.848; in assay [4] (first compound 0.001581 µM), 0.732; in assay [4] (first compound 0.005 µM) it was 0.874; in assay [4] (first compound 0.01581 µM), 0.854; in assay [4] (first compound 0.05 µM), 0.754.
On to SK-MES-1, for which the relative viability was 0.694 in assay [1] (first compound 0.2 µM); 0.624 in assay [1] (first compound 0.6325 µM); 0.642 in assay [1] (first compound 2 µM); 0.591 in assay [1] (first compound 6.325 µM); 0.65 in assay [1] (first compound 20 µM); 0.773 in assay [2] (first compound 0.001581 µM). The relative viability in assay [2] (first compound 0.005 µM) turned out to be 0.925; in assay [2] (first compound 0.01581 µM) it was 0.683; in assay [2] (first compound 0.05 µM), 0.956; in assay [3] (first compound 0.001581 µM), 0.904; in assay [3] (first compound 0.005 µM) it was 1.01; in assay [3] (first compound 0.01581 µM), 0.975. Further, the relative viability in assay [3] (first compound 0.05 µM) came out at 0.939; in assay [4] (first compound 0.001581 µM), 0.992; in assay [4] (first compound 0.005 µM) it was 1.02; in assay [4] (first compound 0.01581 µM), 0.941; in assay [4] (first compound 0.05 µM) it was 1.04.
Turning to NCI-H1734, the relative viability in assay [1] (first compound 0.2 µM) is 0.685; in assay [1] (first compound 0.6325 µM), 0.562; in assay [1] (first compound 2 µM) it was 0.667; in assay [1] (first compound 6.325 µM), 0.578; in assay [1] (first compound 20 µM), 0.649; in assay [2] (first compound 0.001581 µM), 0.172. Besides, the relative viability was 0.192 in assay [2] (first compound 0.005 µM); 0.17 in assay [2] (first compound 0.01581 µM); 0.188 in assay [2] (first compound 0.05 µM); 0.406 in assay [3] (first compound 0.001581 µM); 0.407 in assay [3] (first compound 0.005 µM); 0.415 in assay [3] (first compound 0.01581 µM). Further, the relative viability was 0.437 in assay [3] (first compound 0.05 µM); 0.662 in assay [4] (first compound 0.001581 µM); 0.717 in assay [4] (first compound 0.005 µM); 0.682 in assay [4] (first compound 0.01581 µM); 0.746 in assay [4] (first compound 0.05 µM).
On to NCI-H520, for which the relative viability in assay [1] (first compound 0.2 µM) was 0.211; in assay [1] (first compound 0.6325 µM), 0.298; in assay [1] (first compound 2 µM), 0.255; in assay [1] (first compound 6.325 µM) it was 0.271; in assay [1] (first compound 20 µM), 0.239; in assay [2] (first compound 0.001581 µM), 0.228. Moreover, the relative viability in assay [2] (first compound 0.005 µM) turned out to be 0.276; in assay [2] (first compound 0.01581 µM), 0.247; in assay [2] (first compound 0.05 µM), 0.212; in assay [3] (first compound 0.001581 µM) it was 0.66; in assay [3] (first compound 0.005 µM), 0.755; in assay [3] (first compound 0.01581 µM) it was 0.699. Also, the relative viability in assay [3] (first compound 0.05 µM) is 0.691; in assay [4] (first compound 0.001581 µM), 0.743; in assay [4] (first compound 0.005 µM) it was 0.709; in assay [4] (first compound 0.01581 µM), 0.729; in assay [4] (first compound 0.05 µM), 0.773.

The values are drawn from the supplement of paper PMC10307832.
